Experimental data from US9522198B2, “Methods and compositions related to targeting tumors and wounds” (Sanford-Burnham Medical Research Institute, priority 2006, dated 2016).
“Also recorded” adds a separate entry of the source. Ends that are not written are not given here.

Experiments:
fibronectin = conditions: reported, Akerman, Pilch et al. 2005; cited from earlier work
fibrinogen = target: T1, fibrinogen (Homo sapiens, UniProt P02671+P02675+P02679); conditions: reported, Akerman, Pilch et al. 2005; cited from earlier work
T1 sequence (P02671 20-629 limits assumed): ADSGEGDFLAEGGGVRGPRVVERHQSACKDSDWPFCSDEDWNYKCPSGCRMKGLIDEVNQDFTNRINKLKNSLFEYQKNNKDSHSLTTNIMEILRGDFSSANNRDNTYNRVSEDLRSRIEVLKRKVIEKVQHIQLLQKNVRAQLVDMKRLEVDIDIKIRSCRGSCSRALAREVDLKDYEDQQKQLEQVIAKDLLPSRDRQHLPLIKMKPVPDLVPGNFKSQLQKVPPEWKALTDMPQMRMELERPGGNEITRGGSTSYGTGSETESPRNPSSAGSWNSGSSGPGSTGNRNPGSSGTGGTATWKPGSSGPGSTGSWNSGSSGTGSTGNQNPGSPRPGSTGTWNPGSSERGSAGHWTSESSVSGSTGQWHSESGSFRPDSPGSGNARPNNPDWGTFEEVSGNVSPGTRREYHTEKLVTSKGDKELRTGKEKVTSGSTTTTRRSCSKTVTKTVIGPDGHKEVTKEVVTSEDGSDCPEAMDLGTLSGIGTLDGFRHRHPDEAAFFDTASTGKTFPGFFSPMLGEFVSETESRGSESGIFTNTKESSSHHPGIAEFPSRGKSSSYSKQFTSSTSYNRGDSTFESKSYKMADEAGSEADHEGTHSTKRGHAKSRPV
T1 sequence (P02675 31-491): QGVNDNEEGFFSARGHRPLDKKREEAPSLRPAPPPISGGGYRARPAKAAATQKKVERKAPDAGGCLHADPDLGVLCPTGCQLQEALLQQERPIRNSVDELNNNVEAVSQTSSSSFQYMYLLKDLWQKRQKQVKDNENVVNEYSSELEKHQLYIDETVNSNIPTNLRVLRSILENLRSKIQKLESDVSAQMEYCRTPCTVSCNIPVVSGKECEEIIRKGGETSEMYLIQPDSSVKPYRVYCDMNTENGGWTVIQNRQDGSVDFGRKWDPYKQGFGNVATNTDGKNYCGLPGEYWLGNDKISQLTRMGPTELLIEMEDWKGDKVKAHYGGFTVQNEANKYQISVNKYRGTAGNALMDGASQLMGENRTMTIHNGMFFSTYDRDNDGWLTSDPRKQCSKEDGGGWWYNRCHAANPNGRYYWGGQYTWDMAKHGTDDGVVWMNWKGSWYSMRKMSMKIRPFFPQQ
T1 sequence (P02679 27-453): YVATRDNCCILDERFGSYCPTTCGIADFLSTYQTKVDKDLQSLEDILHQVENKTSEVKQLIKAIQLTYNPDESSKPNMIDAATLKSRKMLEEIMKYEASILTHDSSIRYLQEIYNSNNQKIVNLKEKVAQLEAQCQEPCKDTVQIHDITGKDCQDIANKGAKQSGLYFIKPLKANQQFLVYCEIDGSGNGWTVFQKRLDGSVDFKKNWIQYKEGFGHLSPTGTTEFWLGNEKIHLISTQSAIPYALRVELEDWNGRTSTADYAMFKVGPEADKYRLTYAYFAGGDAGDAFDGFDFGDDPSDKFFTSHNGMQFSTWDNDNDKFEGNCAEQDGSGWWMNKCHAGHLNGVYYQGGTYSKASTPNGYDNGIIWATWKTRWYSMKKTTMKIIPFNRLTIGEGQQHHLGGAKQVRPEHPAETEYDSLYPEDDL

[1] = test system: orthotopic MDA-MB-435 xenograft tumors; assay: Tumor homing of i.v. injected fluorescein-conjugated peptides, MDA-MB-435 xenografts; format: in vivo, mouse
Excerpt: To determine whether the CLT peptides would recognize clotted plasma proteins in vivo, the peptides were synthesized as fluorescein conjugates and imaged their accumulation in tumors. Mice bearing orthotopic MDA-MB-435 xenograft tumors were intravenously injected with fluorescein-conjugated CLT1 (n=6), CLT2 (n=4), or a control peptide (n=4) with the sequence KAREC (SEQ ID NO: 5).
B16F1 mouse melanoma, Lewis lung carcinoma, C8161 human melanoma, MDA-MB-435 human breast cancer, and PPC-1 human prostate cancer cells (American Type Culture Collection) were maintained in RPMI or DMEM supplemented with 10% FCS. Human tumor cells (1×10^6) were injected into the mammary fat pad or the flank of nude BALB/c nu/nu mice to induce tumors. MMTV PyMT mice were provided by Dr. Robert Oshima (Burnham Institute for Medical Research, La Jolla, Calif.). The MMTV PyMT mice develop breast cancer under the influence of a polyoma middle T antigen driven by the mouse tumor virus promoter (Siegel, P. M., Ryan, E. D., Cardiff, R. D., Muller W. J. (1999) EMBO J., 18, 2149-64). B16F1 tumors induced by injecting 1×10^6 cells subcutaneously were grown in the flank of fibrinogen knock-out mice (Suh, T. T., Holmback, K., Jensen, N. J., Daugherty, C. C., Small, K., Simon, D. I., Potter, S., & Degen, J. L. (1995) Genes Dev. 9, 2020-2033), and of transgenic plasma fibronectin-deficient C57BL/6-Fn(f1/f1) Mx-Cre^+ (Sakai, T., Johnson, K. J., Murozono, M., Sakai, K., Magnuson, M. A., Wieloch, T., Cronberg, T., Isshiki, A., Erickson, H. P., & Fassler R. (2001) Nat. Med. 7, 324-30) and their wild type littermates. Deletion of the fibronectin gene in the liver was induced by poly(I):poly(C) (Yi, M., Sakai, T., Fassler, R., & Ruoslahti, E. (2003) Proc. Natl. Acad. Sci. USA. 100, 11435-11438). Frozen human tissues from clinical breast cancers were provided by the Western Division of the NCI Cooperative Human Tissue Network (Vanderbilt University Medical Center, Nashville, Tenn.).
Peptides were synthesized and conjugated to fluorescein isothiocyanate as described (Laakonen et al. PNAS 2004), and cyclized by exposure to air.
Imaging under a blue light, and examination of the distribution of fluorescein-conjugated peptides after tail vein injection have been described (Hoffman, R. M. (2005) Nature Reviews Cancer 5, 796-806; Laakkonen, P., Akerman, M. E., Biliran, H., Yang, M., Ferrer, F., Karpanen, T., Hoffman, R. M., & Ruoslahti E. (2004) Proc. Natl. Acad. Sci. USA 101, 9381-6).
The imaging methods are briefly described as follows: A Leica fluorescence stereomicroscope, model LZ12, equipped with a 50-W mercury lamp, was used for high-magnification imaging. Selective excitation of GFP was produced through a D425y60 band-pass filter and 470 DCXR dichroic mirror. Emitted fluorescence was collected through a long-pass filter GG475 (Chroma Technology, Brattleboro, Vt.) on a Hamamatsu C5810 3-chip cooled color charge-coupled device camera (Hamamatsu Photonics Systems, Bridgewater, N.J.). Images were processed for contrast and brightness and analyzed with the use of IMAGE PRO PLUS 3.1 software (Media Cybernetics, Silver Springs, Md.). Images of 1,024×724 pixels were captured directly on an IBM PC or continuously through video output on a high-resolution Sony VCR model SLV-R1000 (Sony, Tokyo). Imaging at lower magnification that visualized the entire animal was carried out in a light box illuminated by blue light fiber optics (Lightools Research, Encinitas, Calif.) and imaged by using the thermoelectrically cooled color charge-coupled device camera, as described above (Yang, M., Baranov, E., Jiang, P., Sun, F-X., Li, X-M., Li, L., Hasegawa, S., Bouvet, M., Al-Tuwaijri, M., Chishima, T., et al (2000) Proc. Natl. Acad. Sci. USA 97, 1206-11).
The mice were perfused through the heart 3 hours after the peptide injection and tissues removed for examination. […]

mitochondrial membranes = conditions: concentration of 10 μM; cited from earlier work
mouse femoral artery = assay: Homing to wire-injured femoral artery; format: in vivo
Method: (§1) The wire injury of the mouse femoral artery was induced as previously described (Komatsu, M. & Ruoslahti, E. (2005) Nat Med. (2005) 11:1346-1350). Thirty minutes after the wire injury, 250 μg of fluorescein-conjugated peptides were injected i.v. Muscle injuries were induced in mice by applying a crush injury to the quadriceps muscle, and 500 μg fluorescein-conjugated peptides were injected i.v. 48 hours later. Skin incisions were studied similarly. The mice were perfused through the heart 4 hours after the peptide injection, and tissues were excised, fixed in 4% paraformaldehyde, and embedded in OCT.

quadriceps muscle = assay: Homing to muscle crush injury; format: in vivo, mouse
Method: as §1

skin = assay: Homing to skin incision; format: in vivo, mouse
Method: as §1

[2] = test system: human umbilical venous endothelial cells (HUVECs); format: cell-based; conditions: HUVECs
Excerpt: CLT1 contains a sequence of three consecutive hydrophobic residues, LII (leucine-isoleucine-isoleucine). This motif is very similar to the VII sequence (V, valine) which causes proteins to form large insoluble aggregates (Esteras-Chopo et al. 2005). […] The ability of CLT1 to aggregate proteins correlates with its cytotoxicity for human umbilical venous endothelial cells (HUVECs).

[3] = 500 μg fluorescein-conjugated peptide i.v., 3 h

In the case of Anginex, the “aggregate formation in presence of fibronectin” value (fibronectin) is given as “form aggregates” and the “aggregate formation in presence of fibrinogen” value (fibrinogen) is given as “form aggregates”.

In the case of “KAREC (also: fluorescein conjugate, site not given here) [reference compound]”, the “fluorescence in tumors, whole tissues under blue light” value [1, 3] was “essentially no fluorescence”.

For “D(KLAKLAK)2 (KLAKLAKKLAKLAK; D-amino acids) [antimicrobial peptide]”, the mitochondrial swelling (mitochondrial membranes) is given as “marked mitochondrial swelling”.

With “CNAGESSKNC (also: cyclic, ring type not given here, fluorescein conjugate, site not given here) [CLT2, cyclic decapeptide from phage library screened on plasma clots; tested as fluorescein conjugate]” the “fluorescence in control / healthy organs” value [1, 3] was “not in control organs”, the “fluorescence in tumors, whole tissues under blue light” value [1, 3] was “intense fluorescence; also recorded: strong fluorescence” and the “histological distribution of peptide fluorescence within the tumor” value ([1]; fluorescein-conjugated peptide i.v., 3 h, 400×) was “distributed in a network pattern”. For the same substance, the “tumor homing / fluorescence on co-injection with unlabeled CLT2” value ([1]; unlabeled CLT2 in 5 fold excess) was “strongly reduced”, the “homing to normal (intact) femoral artery” value (mouse femoral artery; uninjured) was “not to a normal femoral artery” and the “homing to injured femoral artery” value (mouse femoral artery; wire injury 30 min earlier, 250 μg i.v.) was “homes”. The “homing to muscle crush injury” value (quadriceps muscle; injury 48 hours earlier, 500 μg i.v.) was “accumulate”, the “homing to normal muscle” value (quadriceps muscle; uninjured) was “negative” and the “homing to skin incision” value (skin; incision 48 hours earlier) was “accumulate”. The “homing to normal skin” value (skin; uninjured) was “negative” and the “cytotoxicity for endothelial cells” value [2] was “nor cytotoxic”.
